# Source: US20260217701A1, “SELECTIVE BET INHIBITORS AND USES THEREOF” (Tay Therapeutics Limited, priority 2022, published 2026)
# Several values for one entry are separate records, joined by “and”; a condition that tells them apart may be missing. Equal entries are not always repeated.
# System: imiquimod-induced psoriasis
# Test: Imiquimod-induced psoriasis model
# Assay type: in vivo, mice
# Set-up: Spleen Weight / Spleen Weight Ratio: unit not given here
# Details: for PASI Scores / Number Licking / Number Licking + Scratching / Number Scratching / Distance Traveled / Number Rearings / Spleen Weight / Spleen Weight Ratio: individual animals; for Distance Traveled / Number Rearings: behavioral evaluation; for Spleen Weight / Spleen Weight Ratio: mice
# Summary of the method: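 Mice given topical imiquimod (5% cream) daily on depilated backs Days 1–14; Compound A in 5% DMSO/40% PEG-400/55% saline from Day 8, clobetasol topical as reference. Daily PASI (erythema, induration, peeling, each 0–4, summed) Days 8–15; spleen weight, open-field behaviour, serum IL-1B, IL-6, IL-17, TNF-α, IL-22, IL-23 at Day 15.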
# [1] = IMI-psoriasis model, behavioral evaluation D15, 1 mg/kg
# [2] = IMI-psoriasis model, behavioral evaluation D15, 3 mg/kg
# [3] = IMI-psoriasis model, behavioral evaluation D15, 10 mg/kg
smiles,measurement,setting,value
"COCCn1cc(-c2ccccc2)c(-c2cn(C)c(=O)c3[nH]c(-c4cnn(C(F)(F)F)c4)cc23)cc1=O [Compound B, 4-(1-(2-methoxyethyl)-2-oxo-5-phenyl-1,2-dihydropyridin-4-yl)-6-methyl-2-(1-(trifluoromethyl)-1H-pyrazol-4-yl)-1,6-dihydro-7H-pyrrolo[2,3-c]pyridin-7-one]",PASI Scores,"IMI + Compound B 1 mg/kg, D13",4 (2×) and 5 (3×) and 8 and 7 (2×)
same,PASI Scores,"IMI + Compound B 1 mg/kg, D14",4 (2×) and 7 (2×) and 6 (3×) and 5
same,PASI Scores,"IMI + Compound B 1 mg/kg, D15",5 (3×) and 7 and 4 and 6 (2×) and 3
same,PASI Scores,"IMI + Compound B 3 mg/kg, D8 (day treatment started)",8 and 7 (4×)
same,PASI Scores,"IMI + Compound B 3 mg/kg, D9",7 and 8 and 6 (3×)
same,PASI Scores,"IMI + Compound B 3 mg/kg, D10",6 (2×) and 8 and 5 and 4
same,PASI Scores,"IMI + Compound B 3 mg/kg, D11",5 (4×) and 6
same,PASI Scores,"IMI + Compound B 3 mg/kg, D12",4 and 6 (3×)
same,PASI Scores,"IMI + Compound B 3 mg/kg, D13",6 and 4 (3×)
same,PASI Scores,"IMI + Compound B 3 mg/kg, D14",6 and 4 and 5 and 3
same,PASI Scores,"IMI + Compound B 3 mg/kg, D15",4 and 5 and 3 and 1
same,Use Enrichment D1,"IMI-psoriasis model, D1, 1 mg/kg, per cage (two animals)",4.0
same,Use Enrichment D1,"IMI-psoriasis model, D1, 3 mg/kg, per cage (two animals)",4.0
same,Use Enrichment D1,"IMI-psoriasis model, D1, 10 mg/kg, per cage (two animals)",4.0
same,Use Enrichment D8,"IMI-psoriasis model, D8, 1 mg/kg, per cage (two animals)",1.0 and 1.5
same,Use Enrichment D9,"IMI-psoriasis model, D9, 1 mg/kg, per cage (two animals)",1.5 and 2.0 and 1.0
same,Use Enrichment D10,"IMI-psoriasis model, D10, 1 mg/kg, per cage (two animals)",2.5 and 1.5 and 3.0
same,Use Enrichment D11,"IMI-psoriasis model, D11, 1 mg/kg, per cage (two animals)",3.0 and 3.5 and 2.5
same,Use Enrichment D11,"IMI-psoriasis model, D11, 3 mg/kg, per cage (two animals)",2.0 and 4.0 and 2.5
same,Use Enrichment D12,"IMI-psoriasis model, D12, 1 mg/kg, per cage (two animals)",1.5 and 1.0
same,Use Enrichment D13,"IMI-psoriasis model, D13, 10 mg/kg, per cage (two animals)",4.0 and 2.5
same,Use Enrichment D14,"IMI-psoriasis model, D14, 1 mg/kg, per cage (two animals)",2.5 and 2.0 and 1.5
same,Use Enrichment D14,"IMI-psoriasis model, D14, 3 mg/kg, per cage (two animals)",3.0 and 4.0 and 3.5 and 2.5
same,Use Enrichment D14,"IMI-psoriasis model, D14, 10 mg/kg, per cage (two animals)",4.0
same,Use Enrichment D15,"IMI-psoriasis model, D15, 3 mg/kg, per cage (two animals)",3.5 and 4.0 and 3.0
same,Use Enrichment D15,"IMI-psoriasis model, D15, 10 mg/kg, per cage (two animals)",4.0
same,Number Licking,[1],3 (4×) and 2 and 7 and 4 and 5
same,Number Licking + Scratching,[1],5 (3×) and 8 and 3 and 4 and 7 and 6
same,Number Scratching,[1],2 (2×) and 5 and 0 (3×) and 1 and 3
same,Number Licking,[2],8 (2×) and 9 and 3 (4×)
same,Number Licking + Scratching,[2],8 and 11 and 4 and 3 (2×) and 5 and 13
same,Number Scratching,[2],0 (3×) and 2 (2×) and 1 and 5
same,Number Licking,[3],6 and 4 and 2 (4×) and 3
same,Number Licking + Scratching,[3],6 and 5 and 2 (2×) and 3 (3×)
same,Number Scratching,[3],0 (4×) and 1 (3×)
same,Distance Traveled,"IMI-psoriasis model, 1 mg/kg",15 m and 7 m and 11 m and 8 m and 9 m and 13 m and 14 m (2×)
same,Number Rearings,"IMI-psoriasis model, 1 mg/kg",44 and 23 and 47 and 19 and 29 and 27 and 87 and 49
same,Distance Traveled,"IMI-psoriasis model, 3 mg/kg",17 m and 9 m and 23 m and 12 m and 15 m and 11 m and 13 m
same,Number Rearings,"IMI-psoriasis model, 3 mg/kg",27 and 38 and 121 and 47 and 31 and 60 and 57
same,Distance Traveled,"IMI-psoriasis model, 10 mg/kg",15 m and 14 m and 16 m and 7 m (3×) and 6 m
same,Number Rearings,"IMI-psoriasis model, 10 mg/kg",44 (2×) and 71 and 6 and 11 and 1 and 13
same,Use Enrichment Mean D1-D8,"IMI-psoriasis model, mean D1-D8, 1 mg/kg, per cage (two animals)",2.50 and 2.75
same,Use Enrichment Mean D1-D8,"IMI-psoriasis model, mean D1-D8, 3 mg/kg, per cage (two animals)",2.50 and 2.75 and 2.25
same,Use Enrichment Mean D1-D8,"IMI-psoriasis model, mean D1-D8, 10 mg/kg, per cage (two animals)",2.50 and 2.75 and 2.00 and 3.00
same,Use Enrichment Mean D8-D15,"IMI-psoriasis model, mean D8-D15, 1 mg/kg, per cage (two animals)",2.57 and 2.07 and 2.43 and 2.14
same,Use Enrichment Mean D8-D15,"IMI-psoriasis model, mean D8-D15, 10 mg/kg, per cage (two animals)",3.50 and 2.29 and 1.93 and 3.07
same,Spleen Weight,"IMI-psoriasis model, 1 mg/kg",255.35 and 280.52 and 235.85 and 298.12 and 227.47 and 255.31 and 244.77 and 316.12
same,Spleen Weight Ratio,"IMI-psoriasis model, 1 mg/kg",1562.73 and 1912.20 and 1309.55 and 1793.74 and 1315.62 and 1552.98 and 1518.42 and 1820.97
same,Spleen Weight,"IMI-psoriasis model, 3 mg/kg",244.98 and 212.34 and 270.73 and 183.55 and 232.29 and 224.28 and 206.85 and 220.98
same,Spleen Weight Ratio,"IMI-psoriasis model, 3 mg/kg",1777.79 and 1257.94 and 1699.50 and 1016.90 and 1343.49 and 1313.11 and 1297.68 and 1278.08
same,Spleen Weight,"IMI-psoriasis model, 10 mg/kg",184.80 and 169.45 and 184.96 and 119.62 and 101.24 and 156.25 and 130.42 and 159.58
